One experiment deals with CDK1/Cyclin A (Homo sapiens, UniProt P06493+P20248+P78396). Briefly: Selectivity interaction (Enzymatic assay (Reaction Biology)) EUB0001632a CDK1. The format is protein-complex assay.
The target in experiment [1] is Casein kinase II subunit alpha' (Homo sapiens) (UniProt P19784). Kind of experiment: Selectivity interaction (KinomeScan (DiscoverX)) EUB0000595a CSNK2A2. Conditions: at 10 µM.
Experiment [2] has as its target T1, Phosphatidylinositol 4,5-bisphosphate 3-kinase catalytic subunit delta isoform (Homo sapiens) (UniProt O00329).
T1 sequence (whole entry): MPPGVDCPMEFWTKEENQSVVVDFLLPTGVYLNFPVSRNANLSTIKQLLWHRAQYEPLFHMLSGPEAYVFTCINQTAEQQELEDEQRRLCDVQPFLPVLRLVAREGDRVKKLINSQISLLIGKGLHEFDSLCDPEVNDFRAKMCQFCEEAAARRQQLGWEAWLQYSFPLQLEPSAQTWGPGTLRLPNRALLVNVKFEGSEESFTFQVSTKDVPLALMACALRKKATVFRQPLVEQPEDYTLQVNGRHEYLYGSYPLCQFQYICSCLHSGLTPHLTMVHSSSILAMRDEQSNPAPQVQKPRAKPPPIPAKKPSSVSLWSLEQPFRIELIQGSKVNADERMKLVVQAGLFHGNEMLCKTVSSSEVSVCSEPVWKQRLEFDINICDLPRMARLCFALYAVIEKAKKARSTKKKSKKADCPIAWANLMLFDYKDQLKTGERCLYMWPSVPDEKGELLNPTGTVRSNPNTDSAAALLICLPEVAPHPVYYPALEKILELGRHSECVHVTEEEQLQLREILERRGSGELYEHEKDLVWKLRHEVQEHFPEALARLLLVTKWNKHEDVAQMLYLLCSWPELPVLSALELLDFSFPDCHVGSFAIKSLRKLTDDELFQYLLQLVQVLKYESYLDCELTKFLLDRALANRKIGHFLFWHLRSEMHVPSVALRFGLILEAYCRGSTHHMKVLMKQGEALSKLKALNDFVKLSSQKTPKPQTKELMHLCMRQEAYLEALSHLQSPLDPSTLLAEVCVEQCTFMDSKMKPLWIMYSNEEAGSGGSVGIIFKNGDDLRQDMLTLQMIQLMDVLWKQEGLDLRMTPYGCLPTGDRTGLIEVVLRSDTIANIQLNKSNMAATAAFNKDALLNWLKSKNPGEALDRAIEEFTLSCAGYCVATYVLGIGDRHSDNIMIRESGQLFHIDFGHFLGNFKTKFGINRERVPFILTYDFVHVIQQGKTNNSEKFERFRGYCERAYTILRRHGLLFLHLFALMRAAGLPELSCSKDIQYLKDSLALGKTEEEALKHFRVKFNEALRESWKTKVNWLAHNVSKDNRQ
Briefly: Selectivity interaction (KinomeScan (DiscoverX)) EUB0001619a PIK3CD. The settings on record: at 1 µM.

For experiment [3], the target named is T2, Hormonally up-regulated neu tumor-associated kinase (Homo sapiens) (UniProt P57058).
T2 sequence (whole entry): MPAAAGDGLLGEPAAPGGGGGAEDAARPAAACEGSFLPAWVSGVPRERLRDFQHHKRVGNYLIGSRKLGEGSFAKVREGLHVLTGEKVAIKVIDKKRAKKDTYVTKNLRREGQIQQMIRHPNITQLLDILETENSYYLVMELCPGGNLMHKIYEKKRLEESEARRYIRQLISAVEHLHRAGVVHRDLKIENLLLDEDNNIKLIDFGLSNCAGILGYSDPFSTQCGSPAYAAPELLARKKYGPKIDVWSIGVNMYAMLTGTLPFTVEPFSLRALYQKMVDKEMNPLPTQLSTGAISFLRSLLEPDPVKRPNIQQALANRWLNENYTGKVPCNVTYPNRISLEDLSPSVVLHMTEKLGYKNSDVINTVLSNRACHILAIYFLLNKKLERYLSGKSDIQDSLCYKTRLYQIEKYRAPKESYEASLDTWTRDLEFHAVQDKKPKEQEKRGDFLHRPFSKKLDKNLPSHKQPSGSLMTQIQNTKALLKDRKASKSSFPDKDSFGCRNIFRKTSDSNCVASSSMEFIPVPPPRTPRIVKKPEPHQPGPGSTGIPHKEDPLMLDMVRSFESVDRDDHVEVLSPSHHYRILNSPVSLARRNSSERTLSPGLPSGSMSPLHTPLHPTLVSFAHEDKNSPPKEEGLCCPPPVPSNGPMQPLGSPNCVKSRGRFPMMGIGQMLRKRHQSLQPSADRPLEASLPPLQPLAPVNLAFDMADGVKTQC
The settings on record: at 10 µM.

The target of experiment [4] is cAMP-dependent protein kinase catalytic subunit beta (Homo sapiens) (UniProt P22694). Kind of experiment: Selectivity interaction (KinomeScan (DiscoverX)) EUB0000045b PRKACB.
Experiment [5] addresses T3, Rhodopsin kinase GRK7 (Homo sapiens) (UniProt Q8WTQ7).
T3 sequence (whole entry): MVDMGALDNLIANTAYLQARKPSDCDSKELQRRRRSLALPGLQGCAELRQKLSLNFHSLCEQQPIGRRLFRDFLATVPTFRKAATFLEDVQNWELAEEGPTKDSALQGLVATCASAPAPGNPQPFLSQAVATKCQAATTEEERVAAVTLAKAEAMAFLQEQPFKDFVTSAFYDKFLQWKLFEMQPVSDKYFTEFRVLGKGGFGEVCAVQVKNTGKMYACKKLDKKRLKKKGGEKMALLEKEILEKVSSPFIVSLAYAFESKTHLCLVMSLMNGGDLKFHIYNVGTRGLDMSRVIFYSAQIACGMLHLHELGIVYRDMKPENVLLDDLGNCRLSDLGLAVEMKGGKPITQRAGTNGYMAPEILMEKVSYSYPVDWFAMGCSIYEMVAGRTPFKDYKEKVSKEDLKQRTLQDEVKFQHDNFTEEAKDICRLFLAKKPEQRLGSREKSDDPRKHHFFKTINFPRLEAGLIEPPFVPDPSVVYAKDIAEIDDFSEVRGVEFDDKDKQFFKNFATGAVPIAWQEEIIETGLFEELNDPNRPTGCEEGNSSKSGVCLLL
Kind of experiment: Selectivity interaction (KinomeScan (DiscoverX)) EUB0000655a GRK7. The settings on record: at 10 µM.

The target in experiment [6] is Serine/threonine-protein kinase PAK 2 (Homo sapiens) (UniProt Q13177). Kind of experiment: Selectivity interaction (Millipore kinase profiler) EUB0000124b PAK2. Conditions: at 10 µM.

What is called IC50 is the concentration at which inhibition is half-maximal. Low readings indicate inhibition by little substance, high ones a need for much substance.

Molecules are shown by their SMILES.

Chain of Casein kinase II subunit alpha' (Homo sapiens) (P19784 whole entry, looked up, canonical isoform): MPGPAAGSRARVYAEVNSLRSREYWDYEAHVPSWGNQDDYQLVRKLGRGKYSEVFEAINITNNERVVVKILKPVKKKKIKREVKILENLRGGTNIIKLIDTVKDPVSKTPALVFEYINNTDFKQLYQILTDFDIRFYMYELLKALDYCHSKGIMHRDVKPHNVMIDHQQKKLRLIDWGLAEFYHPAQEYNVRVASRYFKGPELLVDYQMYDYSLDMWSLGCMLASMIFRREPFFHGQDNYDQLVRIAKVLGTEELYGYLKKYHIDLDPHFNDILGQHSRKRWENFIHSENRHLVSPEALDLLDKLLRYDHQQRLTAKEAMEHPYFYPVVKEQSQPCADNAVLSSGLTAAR
Chain of Serine/threonine-protein kinase PAK 2 (Homo sapiens) (Q13177 whole entry): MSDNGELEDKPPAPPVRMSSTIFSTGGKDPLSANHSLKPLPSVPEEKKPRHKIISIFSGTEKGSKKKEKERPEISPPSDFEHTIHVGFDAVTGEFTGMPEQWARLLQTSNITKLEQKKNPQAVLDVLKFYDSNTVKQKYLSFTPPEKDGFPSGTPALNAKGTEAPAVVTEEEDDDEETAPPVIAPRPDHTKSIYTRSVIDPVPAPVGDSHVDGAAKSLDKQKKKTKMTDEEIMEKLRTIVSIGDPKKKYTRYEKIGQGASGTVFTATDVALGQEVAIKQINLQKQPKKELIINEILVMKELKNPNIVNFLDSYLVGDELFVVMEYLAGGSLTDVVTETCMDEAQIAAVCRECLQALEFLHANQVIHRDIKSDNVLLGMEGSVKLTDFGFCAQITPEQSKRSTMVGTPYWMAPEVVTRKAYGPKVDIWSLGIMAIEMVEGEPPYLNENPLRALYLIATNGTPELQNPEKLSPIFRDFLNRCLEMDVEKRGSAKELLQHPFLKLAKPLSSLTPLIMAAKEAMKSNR
Chain of CDK1/Cyclin A (P06493 whole entry): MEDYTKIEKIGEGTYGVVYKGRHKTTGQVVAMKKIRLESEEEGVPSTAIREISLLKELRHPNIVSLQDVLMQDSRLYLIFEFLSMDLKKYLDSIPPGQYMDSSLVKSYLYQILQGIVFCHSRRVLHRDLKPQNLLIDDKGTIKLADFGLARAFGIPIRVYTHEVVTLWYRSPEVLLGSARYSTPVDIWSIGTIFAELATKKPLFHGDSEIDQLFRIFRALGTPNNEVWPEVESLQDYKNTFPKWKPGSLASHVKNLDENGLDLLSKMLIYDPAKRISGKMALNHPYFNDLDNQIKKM
Chain of CDK1/Cyclin A (P20248 whole entry): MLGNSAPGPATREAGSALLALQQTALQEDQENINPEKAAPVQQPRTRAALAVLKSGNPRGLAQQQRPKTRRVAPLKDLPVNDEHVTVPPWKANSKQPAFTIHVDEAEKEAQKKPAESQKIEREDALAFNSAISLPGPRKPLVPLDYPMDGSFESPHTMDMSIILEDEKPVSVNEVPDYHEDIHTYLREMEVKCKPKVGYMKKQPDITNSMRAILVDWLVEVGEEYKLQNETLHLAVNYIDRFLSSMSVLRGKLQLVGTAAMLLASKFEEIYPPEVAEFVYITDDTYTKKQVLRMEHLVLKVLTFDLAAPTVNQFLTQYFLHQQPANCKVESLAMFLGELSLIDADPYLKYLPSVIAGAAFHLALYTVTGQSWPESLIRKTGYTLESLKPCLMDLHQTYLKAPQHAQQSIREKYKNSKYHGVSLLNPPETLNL
Chain of CDK1/Cyclin A (P78396 whole entry): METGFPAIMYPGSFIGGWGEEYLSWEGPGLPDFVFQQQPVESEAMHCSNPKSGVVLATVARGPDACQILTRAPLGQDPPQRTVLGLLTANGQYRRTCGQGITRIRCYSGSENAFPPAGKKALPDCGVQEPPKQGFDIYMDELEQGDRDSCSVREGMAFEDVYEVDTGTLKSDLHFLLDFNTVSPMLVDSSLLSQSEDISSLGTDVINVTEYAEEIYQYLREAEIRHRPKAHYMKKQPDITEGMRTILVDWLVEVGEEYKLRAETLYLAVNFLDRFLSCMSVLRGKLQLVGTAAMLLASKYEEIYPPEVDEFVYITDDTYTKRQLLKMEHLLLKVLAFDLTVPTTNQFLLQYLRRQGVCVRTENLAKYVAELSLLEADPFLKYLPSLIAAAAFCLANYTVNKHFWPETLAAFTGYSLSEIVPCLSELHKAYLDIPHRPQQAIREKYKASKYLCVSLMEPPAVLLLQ

In the case of `Cn1cc(-n2cnc3c(NCc4nc5cc(Cl)c(Cl)cc5[nH]4)nc(N4CCOCC4)nc32)cn1`, on CDK1/Cyclin A, the IC50 was over 10 µM.
Regarding `COCC(=O)NC/C=C/c1ccc2ncnc(Nc3ccc(Oc4ccc(C)nc4)c(C)c3)c2c1` [CP-724714], in experiment [1], the % of control worked out at 100%.
`N#Cc1cccc(-c2c[nH]c3ncnc(N4CCOCC4)c23)c1` displayed a % of control in experiment [2] of 100%.
In experiment [3], `Cc1cc([C@@H](C)Nc2ccccc2C(=O)O)c2nc(N3CCOCC3)cc(=O)n2c1` [AZD-6482] returned a % of control of 81%.
For `C=CC(=O)Nc1cc(-n2c(=O)ccc3cnc4ccc(-c5ccc(NS(C)(=O)=O)cc5)cc4c32)ccc1C`, the % of control was found to be 79% in experiment [4] (at 1 µM) and 100% in experiment [4] (at 10 µM).
Take `CN(C)CCOc1ccc(-c2nc(-c3ccncc3)c(-c3ccc4c(c3)CC/C4=N\O)[nH]2)cc1`: in experiment [5], the % of control amounted to 100%.
`CC(=O)Nc1cccc(-n2c(=O)n(C3CC3)c(=O)c3c(Nc4ccc(I)cc4F)n(C)c(=O)c(C)c32)c1`: in experiment [6], the % of control is 96%.

Values taken from ChEMBL document CHEMBL5465560, “Selectivity Literature for EUbOPEN Chemogenomic Library” (2024).
